From ChEMBL document CHEMBL5370593, “Discovery and In Vitro Characterization of SPL028: Deuterated N,N-Dimethyltryptamine” (ACS Med Chem Lett, 2023)

Legend:
[1] = Plasma protein binding in human assessed as unbound fraction by rapid equilibrium dialysis analysis; assay type: ADME, cell-free
[2] = Metabolic stability in human liver mitochondrial fraction assessed as mean intrinsic clearance measured per million cells incubated upto 60 mins by LC-MS/MS analysis; assay type: ADME, mitochondria, Mitochondria; conditions: 1 h
[3] = Metabolic stability in human hepatocytes assessed as half life measured per million cells incubated upto 60 mins by LC-MS/MS analysis; assay type: ADME, cell-based, Hepatocyte
[4] = Metabolic stability in human hepatocytes assessed as intrinsic clearance measured per million cells incubated upto 60 mins by LC-MS/MS analysis; assay type: ADME, cell-based, Hepatocyte; conditions: read-out: CLH
[5] = Distribution coefficient, mean logD of compound at pH 7.4 in octanol and aqueous solution incubated for 95 mins under shaking condition by LC-MS/MS analysis; assay type: physicochemical
[6] = target: 5-hydroxytryptamine receptor 1B (Homo sapiens, UniProt P28222); experiment: Displacement of [3H] GR125743 from human recombinant 5-HT1B receptor expressed in […] cells incubated for 90 mins by spectrophotometric analysis; assay type: cell-based
[7] = target: T1, 5-hydroxytryptamine receptor 2A (Homo sapiens, UniProt P28223); experiment: Displacement of [3H] ketanserin from human recombinant 5-HT2A receptor expressed in CHO-K1 cells incubated for 60 mins by spectrophotometric analysis
[8] = target: T2, 5-hydroxytryptamine receptor 6 (Homo sapiens, UniProt P50406); experiment: Displacement of [3H] LSD from human recombinant 5-HT6 receptor expressed in human HeLa cells incubated for 120 mins by spectrophotometric analysis; assay type: cell-based
[9] = target: T3, Alpha-1D adrenergic receptor (Homo sapiens, UniProt P25100); experiment: Displacement of [3H] prazosin from human recombinant adrenergic alpha-1d receptor expressed in HEK293 cells incubated for 60 mins by spectrophotometric analysis; assay type: cell-based
T3 sequence (P25100 whole entry): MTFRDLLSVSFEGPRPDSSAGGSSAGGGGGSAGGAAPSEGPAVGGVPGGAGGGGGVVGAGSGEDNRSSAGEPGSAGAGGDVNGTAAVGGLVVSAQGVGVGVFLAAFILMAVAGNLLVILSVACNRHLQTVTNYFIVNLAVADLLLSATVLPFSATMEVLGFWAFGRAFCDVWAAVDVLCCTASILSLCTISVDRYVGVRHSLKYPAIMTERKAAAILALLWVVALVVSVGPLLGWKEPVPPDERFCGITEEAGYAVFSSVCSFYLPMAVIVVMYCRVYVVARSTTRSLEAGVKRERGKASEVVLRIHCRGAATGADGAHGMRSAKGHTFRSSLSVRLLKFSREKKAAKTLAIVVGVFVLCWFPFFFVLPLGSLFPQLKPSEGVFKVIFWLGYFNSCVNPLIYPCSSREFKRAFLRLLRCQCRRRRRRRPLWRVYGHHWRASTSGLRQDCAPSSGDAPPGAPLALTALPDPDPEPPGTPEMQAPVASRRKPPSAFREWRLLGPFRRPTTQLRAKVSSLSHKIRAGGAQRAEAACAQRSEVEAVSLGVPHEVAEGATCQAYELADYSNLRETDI

[10] = target: T4, Alpha-2A adrenergic receptor (Homo sapiens, UniProt P08913); experiment: Displacement of [3H]-rauwolscine from human recombinant adrenergic alpha-2A receptor expressed in CHO-K1 cells incubated for 60 mins by spectrophotometric analysis; assay type: cell-based
T4 sequence (P08913 whole entry): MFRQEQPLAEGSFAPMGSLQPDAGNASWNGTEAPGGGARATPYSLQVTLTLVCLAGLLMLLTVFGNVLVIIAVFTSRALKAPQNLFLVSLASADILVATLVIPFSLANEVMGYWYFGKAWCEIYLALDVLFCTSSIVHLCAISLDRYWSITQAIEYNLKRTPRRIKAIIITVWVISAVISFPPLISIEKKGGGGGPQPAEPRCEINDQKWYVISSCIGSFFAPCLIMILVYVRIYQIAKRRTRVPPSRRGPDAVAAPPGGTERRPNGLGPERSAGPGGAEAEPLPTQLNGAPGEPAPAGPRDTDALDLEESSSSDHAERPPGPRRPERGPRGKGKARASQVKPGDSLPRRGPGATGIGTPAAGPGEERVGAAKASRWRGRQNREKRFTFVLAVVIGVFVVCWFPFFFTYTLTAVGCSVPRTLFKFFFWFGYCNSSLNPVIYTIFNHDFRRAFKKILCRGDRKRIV

[11] = target: Amine oxidase [flavin-containing] A (Homo sapiens, UniProt P21397); experiment: Inhibition of human recombinant MAO-A expressed in insect cells assessed as inhibition of 4-hydroxyquinoline formation using kynuramine as substrate incubated for 75 mins by spectrophotometric analysis; set-up: species or system Insect cell
[12] = target: T1, 5-hydroxytryptamine receptor 2A; experiment: Displacement of [3H] ketanserin from human recombinant 5-HT2A receptor expressed in CHO-K1 cells assessed as inhibition constant incubated for 60 mins by spectrophotometric analysis
[13] = target: 5-hydroxytryptamine receptor 5A (Homo sapiens, UniProt P47898); experiment: Displacement of [3H] LSD from human recombinant 5-HT5A receptor expressed in CHO-K1 cells assessed as inhibition constant incubated for 60 mins by spectrophotometric analysis; assay type: cell-based
[14] = target: T2, 5-hydroxytryptamine receptor 6; experiment: Displacement of [3H] LSD from human recombinant 5-HT6 receptor expressed in human HeLa cells assessed as inhibition constant incubated for 120 mins by spectrophotometric analysis; assay type: cell-based
[15] = target: T5, Alpha-1B adrenergic receptor (Homo sapiens, UniProt P35368); experiment: Displacement of [3H] prazosin from human recombinant adrenergic alpha-1b receptor expressed in […] cells assessed as inhibition constant incubated for 60 mins by spectrophotometric analysis; assay type: cell-based
T5 sequence (P35368 whole entry): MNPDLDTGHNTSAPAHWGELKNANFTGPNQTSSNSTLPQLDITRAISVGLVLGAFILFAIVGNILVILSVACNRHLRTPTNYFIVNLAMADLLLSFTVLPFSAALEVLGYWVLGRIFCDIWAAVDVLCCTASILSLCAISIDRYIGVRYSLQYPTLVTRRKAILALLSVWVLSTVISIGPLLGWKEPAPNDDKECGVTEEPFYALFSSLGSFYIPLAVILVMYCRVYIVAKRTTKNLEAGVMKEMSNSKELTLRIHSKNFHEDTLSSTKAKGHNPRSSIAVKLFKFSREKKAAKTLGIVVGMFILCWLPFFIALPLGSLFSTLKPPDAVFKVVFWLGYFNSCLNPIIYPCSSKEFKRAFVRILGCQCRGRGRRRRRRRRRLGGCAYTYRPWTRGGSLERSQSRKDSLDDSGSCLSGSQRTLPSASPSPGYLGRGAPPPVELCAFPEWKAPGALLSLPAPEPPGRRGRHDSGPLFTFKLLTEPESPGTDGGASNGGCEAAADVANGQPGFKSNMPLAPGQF

[16] = Displacement of [3H] idazoxan from imidazoline receptor 2 (unknown origin) assessed as inhibition constant by spectrophotometric analysis; set-up: species or system Homo sapiens

T1 sequence (P28223 whole entry): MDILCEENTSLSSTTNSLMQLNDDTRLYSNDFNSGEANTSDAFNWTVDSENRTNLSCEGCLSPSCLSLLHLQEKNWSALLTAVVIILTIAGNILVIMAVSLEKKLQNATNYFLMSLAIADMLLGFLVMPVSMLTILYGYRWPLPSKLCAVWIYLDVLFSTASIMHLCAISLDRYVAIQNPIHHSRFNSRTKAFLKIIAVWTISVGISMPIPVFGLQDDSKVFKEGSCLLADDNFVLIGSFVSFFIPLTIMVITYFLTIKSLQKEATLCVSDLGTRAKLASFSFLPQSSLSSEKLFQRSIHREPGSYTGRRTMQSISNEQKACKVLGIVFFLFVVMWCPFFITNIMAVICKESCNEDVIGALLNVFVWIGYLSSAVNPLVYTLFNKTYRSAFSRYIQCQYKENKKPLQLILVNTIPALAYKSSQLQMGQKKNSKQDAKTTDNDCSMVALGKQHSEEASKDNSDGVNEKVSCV
T2 sequence (P50406 whole entry): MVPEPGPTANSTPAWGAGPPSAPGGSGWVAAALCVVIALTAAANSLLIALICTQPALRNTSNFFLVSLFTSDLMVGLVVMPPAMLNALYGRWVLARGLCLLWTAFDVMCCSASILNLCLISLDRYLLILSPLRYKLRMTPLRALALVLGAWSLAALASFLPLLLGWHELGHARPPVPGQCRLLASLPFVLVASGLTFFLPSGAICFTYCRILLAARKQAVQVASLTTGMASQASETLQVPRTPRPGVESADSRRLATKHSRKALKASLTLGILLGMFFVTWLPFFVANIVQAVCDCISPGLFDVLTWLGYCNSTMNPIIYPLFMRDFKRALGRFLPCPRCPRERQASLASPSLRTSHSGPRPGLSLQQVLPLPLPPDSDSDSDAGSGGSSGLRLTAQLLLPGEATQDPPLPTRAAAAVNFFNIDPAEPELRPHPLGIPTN
5-hydroxytryptamine receptor 1B, sequence (P28222 whole entry): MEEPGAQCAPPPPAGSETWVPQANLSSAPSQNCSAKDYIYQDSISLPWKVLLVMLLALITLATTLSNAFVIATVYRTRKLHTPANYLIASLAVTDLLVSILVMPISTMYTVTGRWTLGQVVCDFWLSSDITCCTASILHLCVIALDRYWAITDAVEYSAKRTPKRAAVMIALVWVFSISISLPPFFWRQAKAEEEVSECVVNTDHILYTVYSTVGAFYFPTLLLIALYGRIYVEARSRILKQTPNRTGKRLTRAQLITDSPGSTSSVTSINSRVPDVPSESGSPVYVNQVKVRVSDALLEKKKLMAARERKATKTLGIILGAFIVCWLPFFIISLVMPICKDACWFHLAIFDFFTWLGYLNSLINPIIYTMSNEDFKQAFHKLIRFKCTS
5-hydroxytryptamine receptor 5A, sequence (P47898 whole entry): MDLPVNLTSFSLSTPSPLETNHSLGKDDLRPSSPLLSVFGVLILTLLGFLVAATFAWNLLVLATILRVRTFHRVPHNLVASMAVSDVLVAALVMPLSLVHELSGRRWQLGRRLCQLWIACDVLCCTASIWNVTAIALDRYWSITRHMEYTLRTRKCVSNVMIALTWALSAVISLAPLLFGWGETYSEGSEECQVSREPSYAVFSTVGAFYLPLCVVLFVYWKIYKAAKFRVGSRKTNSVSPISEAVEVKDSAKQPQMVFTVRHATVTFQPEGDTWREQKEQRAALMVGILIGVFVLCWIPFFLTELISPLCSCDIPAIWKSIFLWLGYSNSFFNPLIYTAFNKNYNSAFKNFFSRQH
Amine oxidase [flavin-containing] A, sequence (P21397 whole entry): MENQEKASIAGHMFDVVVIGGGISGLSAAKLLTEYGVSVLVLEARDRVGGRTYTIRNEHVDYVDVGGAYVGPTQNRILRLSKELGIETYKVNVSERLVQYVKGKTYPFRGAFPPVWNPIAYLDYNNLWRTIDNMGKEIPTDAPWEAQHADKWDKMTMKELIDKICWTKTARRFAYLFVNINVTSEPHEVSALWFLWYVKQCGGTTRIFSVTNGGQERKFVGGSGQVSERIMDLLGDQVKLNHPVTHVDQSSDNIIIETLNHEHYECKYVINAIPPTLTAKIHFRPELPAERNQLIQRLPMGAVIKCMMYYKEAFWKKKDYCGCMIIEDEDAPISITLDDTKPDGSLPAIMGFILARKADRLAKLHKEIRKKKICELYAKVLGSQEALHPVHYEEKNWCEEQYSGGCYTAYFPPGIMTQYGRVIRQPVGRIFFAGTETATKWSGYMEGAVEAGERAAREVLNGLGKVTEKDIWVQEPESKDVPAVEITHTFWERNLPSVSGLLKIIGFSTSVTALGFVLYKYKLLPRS

| Compound | fraction unbound [1] | CLH [2] [µL/min] | half-life [3] [h] | hepatocyte CLint [4] [µL/min/1e6 cells] | logD at 1.583 h [5] | IC50 [6] [µM] | IC50 [7] [µM] | IC50 [8] [µM] | IC50 [9] [µM] | IC50 [10] [µM] | IC50 [11] [µM] | Ki [12] [µM] | Ki [13] [µM] | Ki [14] [µM] | Ki [15] [µM] | Ki [16] [µM] |
| --- | --- | --- | --- | --- | --- | --- | --- | --- | --- | --- | --- | --- | --- | --- | --- | --- |
| CN(C)CCc1c[nH]c2ccccc12.O=C(O)/C=C/C(=O)O | 0.68 | 168 | 3.17 | 16.6 | 0.15 | 2.42 | 0.15 | 1.21 | 3.07 | 2.22 | 1.18 | 0.04 | 1.71 | 0.56 | 0.26 | 1.29 |
| O=C(O)/C=C/C(=O)O.[2H]C([2H])(Cc1c[nH]c2ccccc12)N(C)C | 0.7 | 16.5 | 3.72 | 7.3 | 0.11 | 1.99 | 0.22 | 1.08 | 3.26 | 3.03 | 1.5 | 0.06 | 1.71 | 0.5 | 0.37 | 1.73 |
